Among the data in ChEMBL document CHEMBL5291721, “A preclinical secondary pharmacology resource illuminates target-adverse drug reaction associations of marketed drugs” (Nat Commun, 2023) are AC50 values, retold here.

Assay [1] concerns the target T1, 5-hydroxytryptamine receptor 1A (Homo sapiens, UniProt P08908).
T1 sequence (P08908 whole entry): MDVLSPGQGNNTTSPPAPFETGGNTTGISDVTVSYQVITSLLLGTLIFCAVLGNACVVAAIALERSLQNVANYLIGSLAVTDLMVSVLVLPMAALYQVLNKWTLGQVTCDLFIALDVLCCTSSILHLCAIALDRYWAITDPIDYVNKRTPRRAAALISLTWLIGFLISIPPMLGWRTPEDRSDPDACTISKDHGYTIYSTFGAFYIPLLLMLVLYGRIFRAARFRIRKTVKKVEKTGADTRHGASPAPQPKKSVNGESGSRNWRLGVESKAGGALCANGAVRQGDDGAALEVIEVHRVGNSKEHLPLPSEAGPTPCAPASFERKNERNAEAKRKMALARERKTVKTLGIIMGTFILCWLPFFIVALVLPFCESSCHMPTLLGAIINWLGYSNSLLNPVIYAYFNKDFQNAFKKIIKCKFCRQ
Format: functional, cell-based.

For another assay, the target named is T2, B2 bradykinin receptor (Homo sapiens, UniProt P30411).
T2 sequence (P30411 whole entry): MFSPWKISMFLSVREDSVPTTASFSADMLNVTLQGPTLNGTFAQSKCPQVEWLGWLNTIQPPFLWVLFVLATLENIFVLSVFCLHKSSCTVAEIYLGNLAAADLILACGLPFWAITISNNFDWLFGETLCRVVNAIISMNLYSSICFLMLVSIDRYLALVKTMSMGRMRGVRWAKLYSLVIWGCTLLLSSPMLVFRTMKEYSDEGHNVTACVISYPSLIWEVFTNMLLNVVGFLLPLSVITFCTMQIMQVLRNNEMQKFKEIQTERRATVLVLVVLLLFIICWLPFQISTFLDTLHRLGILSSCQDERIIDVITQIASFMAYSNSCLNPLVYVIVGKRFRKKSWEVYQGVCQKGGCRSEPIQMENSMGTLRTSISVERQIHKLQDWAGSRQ

Assay [2] has as its target Voltage-dependent L-type calcium channel subunit alpha-1C (Rattus norvegicus, UniProt P22002). It is filed as functional.
Assay [3] deals with Delta-type opioid receptor (Homo sapiens, UniProt P41143).
Delta-type opioid receptor, sequence (P41143 whole entry): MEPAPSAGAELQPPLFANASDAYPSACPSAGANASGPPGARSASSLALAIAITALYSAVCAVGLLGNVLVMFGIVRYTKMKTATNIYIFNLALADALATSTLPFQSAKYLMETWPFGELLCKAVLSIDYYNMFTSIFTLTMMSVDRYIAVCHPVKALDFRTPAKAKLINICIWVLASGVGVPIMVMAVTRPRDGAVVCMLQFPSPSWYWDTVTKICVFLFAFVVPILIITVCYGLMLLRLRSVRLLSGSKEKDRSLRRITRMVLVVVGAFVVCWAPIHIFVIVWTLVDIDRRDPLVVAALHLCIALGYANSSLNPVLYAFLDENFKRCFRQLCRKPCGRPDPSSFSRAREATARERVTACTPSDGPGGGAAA
The target in assay [4] is Kappa-type opioid receptor (Homo sapiens, UniProt P41145).
Kappa-type opioid receptor, sequence (P41145 whole entry): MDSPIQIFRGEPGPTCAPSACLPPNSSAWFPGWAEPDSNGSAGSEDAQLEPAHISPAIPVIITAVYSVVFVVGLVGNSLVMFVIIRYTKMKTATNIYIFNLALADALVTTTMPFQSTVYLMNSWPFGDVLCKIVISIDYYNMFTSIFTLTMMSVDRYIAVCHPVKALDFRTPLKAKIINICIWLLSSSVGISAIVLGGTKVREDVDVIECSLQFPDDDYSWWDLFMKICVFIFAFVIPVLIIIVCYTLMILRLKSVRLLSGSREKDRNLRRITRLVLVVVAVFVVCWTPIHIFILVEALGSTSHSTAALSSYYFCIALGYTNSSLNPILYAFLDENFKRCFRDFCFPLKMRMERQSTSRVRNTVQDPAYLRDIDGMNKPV
Assay [5] concerns the target T3, Prostaglandin G/H synthase 1 (Rattus norvegicus, UniProt Q63921).
T3 sequence (Q63921 whole entry): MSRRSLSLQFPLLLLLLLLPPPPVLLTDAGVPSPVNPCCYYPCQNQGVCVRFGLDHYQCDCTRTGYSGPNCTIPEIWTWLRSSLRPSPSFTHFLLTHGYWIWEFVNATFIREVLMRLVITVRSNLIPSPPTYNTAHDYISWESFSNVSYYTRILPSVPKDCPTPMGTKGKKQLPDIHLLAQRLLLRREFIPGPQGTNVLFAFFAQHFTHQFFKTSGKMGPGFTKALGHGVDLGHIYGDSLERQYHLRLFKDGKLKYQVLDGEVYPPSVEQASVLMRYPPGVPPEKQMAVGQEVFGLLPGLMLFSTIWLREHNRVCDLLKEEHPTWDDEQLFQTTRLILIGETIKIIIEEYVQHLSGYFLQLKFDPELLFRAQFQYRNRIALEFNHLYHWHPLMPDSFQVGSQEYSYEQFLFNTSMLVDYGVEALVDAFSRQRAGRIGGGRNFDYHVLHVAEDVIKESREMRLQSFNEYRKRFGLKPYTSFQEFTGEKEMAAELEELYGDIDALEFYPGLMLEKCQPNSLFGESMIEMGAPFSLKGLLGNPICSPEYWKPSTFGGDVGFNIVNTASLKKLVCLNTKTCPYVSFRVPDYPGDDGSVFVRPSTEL
It is filed as functional.

Assay [6] deals with T4, Alpha-2A adrenergic receptor (Homo sapiens, UniProt P08913).
T4 sequence (P08913 whole entry): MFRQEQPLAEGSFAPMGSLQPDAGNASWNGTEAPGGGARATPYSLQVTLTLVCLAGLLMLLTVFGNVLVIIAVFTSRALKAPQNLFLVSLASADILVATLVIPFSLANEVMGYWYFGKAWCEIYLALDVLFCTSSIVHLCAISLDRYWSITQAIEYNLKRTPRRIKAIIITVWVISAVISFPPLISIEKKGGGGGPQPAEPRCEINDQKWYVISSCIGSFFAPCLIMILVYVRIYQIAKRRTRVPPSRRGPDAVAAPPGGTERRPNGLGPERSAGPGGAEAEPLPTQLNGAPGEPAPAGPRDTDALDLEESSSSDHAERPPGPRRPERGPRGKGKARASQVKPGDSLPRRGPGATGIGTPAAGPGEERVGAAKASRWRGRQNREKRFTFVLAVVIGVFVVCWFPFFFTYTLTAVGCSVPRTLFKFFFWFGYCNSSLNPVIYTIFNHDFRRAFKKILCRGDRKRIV
Format: functional, cell-based.

For assay [7], the target named is 5-hydroxytryptamine receptor 2B (Homo sapiens, UniProt P41595). It is filed as functional, cell-based.
5-hydroxytryptamine receptor 2B, sequence (P41595 whole entry): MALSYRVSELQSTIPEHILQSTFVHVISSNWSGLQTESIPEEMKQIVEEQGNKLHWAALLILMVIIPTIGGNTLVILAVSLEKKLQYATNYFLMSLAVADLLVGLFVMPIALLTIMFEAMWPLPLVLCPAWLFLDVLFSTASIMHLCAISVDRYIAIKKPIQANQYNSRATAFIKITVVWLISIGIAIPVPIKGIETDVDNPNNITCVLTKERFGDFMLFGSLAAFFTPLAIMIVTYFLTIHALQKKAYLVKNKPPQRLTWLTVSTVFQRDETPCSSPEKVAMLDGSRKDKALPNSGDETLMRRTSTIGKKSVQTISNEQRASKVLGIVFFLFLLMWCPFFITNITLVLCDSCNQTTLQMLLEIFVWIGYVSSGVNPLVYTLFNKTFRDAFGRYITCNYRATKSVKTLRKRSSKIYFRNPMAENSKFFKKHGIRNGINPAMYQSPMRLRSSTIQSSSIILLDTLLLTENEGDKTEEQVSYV
For assay [8], the target named is T5, Muscarinic acetylcholine receptor M2 (Homo sapiens, UniProt P08172).
T5 sequence (P08172 whole entry): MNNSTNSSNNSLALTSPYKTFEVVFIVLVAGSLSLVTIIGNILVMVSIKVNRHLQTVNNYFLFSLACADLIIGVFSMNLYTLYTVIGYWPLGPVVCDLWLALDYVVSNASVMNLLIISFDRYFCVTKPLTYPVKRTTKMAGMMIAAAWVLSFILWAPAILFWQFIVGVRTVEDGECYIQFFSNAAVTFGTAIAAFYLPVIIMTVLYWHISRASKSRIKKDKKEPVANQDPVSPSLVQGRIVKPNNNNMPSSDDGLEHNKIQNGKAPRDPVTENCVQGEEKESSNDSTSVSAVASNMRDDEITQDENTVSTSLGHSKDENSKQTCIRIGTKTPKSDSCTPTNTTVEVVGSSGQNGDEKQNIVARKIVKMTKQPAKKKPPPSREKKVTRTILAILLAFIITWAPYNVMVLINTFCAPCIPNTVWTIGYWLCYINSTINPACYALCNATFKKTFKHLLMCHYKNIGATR
Format: functional, cell-based.

Another assay has as its target T6, Adenosine receptor A1 (Homo sapiens, UniProt P30542).
T6 sequence (P30542 whole entry): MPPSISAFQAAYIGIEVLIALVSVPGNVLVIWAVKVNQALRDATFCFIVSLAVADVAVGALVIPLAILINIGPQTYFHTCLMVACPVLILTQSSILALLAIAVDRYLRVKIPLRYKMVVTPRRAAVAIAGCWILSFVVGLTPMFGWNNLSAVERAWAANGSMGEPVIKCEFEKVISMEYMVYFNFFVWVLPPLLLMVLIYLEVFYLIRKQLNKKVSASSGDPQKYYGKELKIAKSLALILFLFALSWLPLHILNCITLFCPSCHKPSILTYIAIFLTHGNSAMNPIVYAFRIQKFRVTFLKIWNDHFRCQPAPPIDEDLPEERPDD

A value given as a limit tells only on which side of the number the result lay.
Note: assay procedure not described here.

Voltage-dependent L-type calcium channel subunit alpha-1C, sequence (P22002 whole entry): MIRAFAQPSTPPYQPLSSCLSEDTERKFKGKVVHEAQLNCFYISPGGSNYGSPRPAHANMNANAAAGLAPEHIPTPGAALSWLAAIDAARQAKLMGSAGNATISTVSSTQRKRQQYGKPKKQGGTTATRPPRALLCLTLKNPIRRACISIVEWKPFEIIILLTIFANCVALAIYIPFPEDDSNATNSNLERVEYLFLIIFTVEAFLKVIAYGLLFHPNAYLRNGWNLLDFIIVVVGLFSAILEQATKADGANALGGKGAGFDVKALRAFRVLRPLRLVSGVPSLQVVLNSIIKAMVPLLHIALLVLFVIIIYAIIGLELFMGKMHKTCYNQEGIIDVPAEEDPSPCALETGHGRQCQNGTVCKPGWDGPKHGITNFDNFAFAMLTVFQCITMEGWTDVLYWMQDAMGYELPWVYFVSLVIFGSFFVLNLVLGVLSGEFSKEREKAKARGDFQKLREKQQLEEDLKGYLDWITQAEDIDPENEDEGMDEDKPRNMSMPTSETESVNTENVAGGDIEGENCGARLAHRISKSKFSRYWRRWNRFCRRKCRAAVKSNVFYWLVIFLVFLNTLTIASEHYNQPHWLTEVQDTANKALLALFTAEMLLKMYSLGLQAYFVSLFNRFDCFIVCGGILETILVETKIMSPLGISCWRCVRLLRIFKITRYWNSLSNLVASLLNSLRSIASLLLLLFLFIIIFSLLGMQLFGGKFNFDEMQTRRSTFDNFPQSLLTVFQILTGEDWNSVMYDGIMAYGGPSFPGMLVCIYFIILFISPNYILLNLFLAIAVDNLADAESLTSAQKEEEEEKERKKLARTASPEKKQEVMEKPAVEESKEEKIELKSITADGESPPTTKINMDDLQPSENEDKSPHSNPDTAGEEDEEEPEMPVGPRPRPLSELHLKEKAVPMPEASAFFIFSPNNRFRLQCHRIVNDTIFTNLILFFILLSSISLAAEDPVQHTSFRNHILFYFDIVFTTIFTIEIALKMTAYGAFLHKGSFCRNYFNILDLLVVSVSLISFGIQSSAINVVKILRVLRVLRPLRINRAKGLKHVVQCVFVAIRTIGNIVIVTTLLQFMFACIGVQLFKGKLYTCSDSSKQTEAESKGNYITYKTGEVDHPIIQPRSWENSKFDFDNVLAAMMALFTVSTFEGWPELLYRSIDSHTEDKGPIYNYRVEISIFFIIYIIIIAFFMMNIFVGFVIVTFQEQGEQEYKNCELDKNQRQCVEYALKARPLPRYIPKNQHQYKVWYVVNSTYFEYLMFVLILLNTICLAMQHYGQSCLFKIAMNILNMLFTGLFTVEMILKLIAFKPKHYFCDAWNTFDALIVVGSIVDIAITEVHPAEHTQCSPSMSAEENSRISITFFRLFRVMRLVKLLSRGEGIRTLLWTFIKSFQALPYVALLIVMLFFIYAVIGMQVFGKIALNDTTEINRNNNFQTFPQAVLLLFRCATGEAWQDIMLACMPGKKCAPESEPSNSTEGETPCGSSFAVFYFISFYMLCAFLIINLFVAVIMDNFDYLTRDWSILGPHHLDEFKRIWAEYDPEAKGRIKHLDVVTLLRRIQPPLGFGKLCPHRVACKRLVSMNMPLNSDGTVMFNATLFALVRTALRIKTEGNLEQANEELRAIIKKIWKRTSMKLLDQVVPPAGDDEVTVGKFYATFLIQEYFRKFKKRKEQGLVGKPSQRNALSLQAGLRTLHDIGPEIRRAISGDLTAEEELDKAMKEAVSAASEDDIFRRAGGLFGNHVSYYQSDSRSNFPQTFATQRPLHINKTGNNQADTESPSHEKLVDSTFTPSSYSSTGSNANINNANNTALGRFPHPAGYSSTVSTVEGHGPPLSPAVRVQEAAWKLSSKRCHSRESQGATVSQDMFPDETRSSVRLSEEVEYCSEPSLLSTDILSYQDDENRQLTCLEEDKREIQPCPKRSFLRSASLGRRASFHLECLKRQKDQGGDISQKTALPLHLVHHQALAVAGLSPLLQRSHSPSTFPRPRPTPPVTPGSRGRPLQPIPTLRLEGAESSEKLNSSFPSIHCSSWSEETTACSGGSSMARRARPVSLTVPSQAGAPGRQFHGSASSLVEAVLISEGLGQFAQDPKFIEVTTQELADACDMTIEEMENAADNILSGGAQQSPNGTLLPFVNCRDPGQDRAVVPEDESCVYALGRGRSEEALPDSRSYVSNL

For orientation: AC50 means the concentration at which the activity in the assay is half-maximal. As for `C#CC1(OC(N)=O)CCCCC1` [ETHINAMATE], the AC50 is more than 10 µM in [1]; more than 10 µM on B2 bradykinin receptor; more than 10 µM in [2]; more than 30 µM in assay [3]; more than 10 µM in assay [4]; more than 10 µM in [5]. In addition, the AC50 (in assay [6]; in assay [7]; in [8]; at Adenosine receptor A1) was more than 10 µM each time.

For the compound `Cc1nc2ccc(CN(C)c3ccc(C(=O)N[C@@H](CCC(=O)O)C(=O)O)s3)cc2c(=O)[nH]1` [RALTITREXED], the AC50 (in assay [1]; at B2 bradykinin receptor; in assay [2]; in assay [3]; in [4]; in [5]) was more than 30 µM in each case. In addition, the AC50 (in assay [6]; in assay [7]; in [8]; on Adenosine receptor A1) was more than 30 µM throughout.

With `CC1=CC(=O)c2ccccc2C1=O` [MENADIONE], the AC50 in assay [1] is more than 10 µM; at B2 bradykinin receptor, more than 10 µM; in assay [2], more than 10 µM; in [3] it was more than 30 µM; in [4] it was more than 10 µM; in assay [5] it was more than 10 µM. The AC50 was more than 10 µM in [6], more than 10 µM in [7], more than 10 µM in assay [8] and more than 30 µM on Adenosine receptor A1.

For the compound `Cc1cc(-c2ccccc2)nnc1NCCN1CCOCC1` [MINAPRINE], the AC50 in assay [1] was more than 10 µM; at B2 bradykinin receptor, more than 30 µM; in [2], more than 10 µM; in assay [3], more than 30 µM; in [4], more than 10 µM; in assay [5] it was more than 30 µM. The AC50 was more than 10 µM in assay [6], more than 10 µM in [7], more than 10 µM in [8] and more than 30 µM at Adenosine receptor A1.

`C1COC(NC(C2CC2)C2CC2)=N1` [RILMENIDINE]: the AC50 was more than 30 µM in assay [1]; more than 30 µM on B2 bradykinin receptor; more than 10 µM in assay [2]; more than 30 µM in [3]; 1.72 µM in assay [4]; more than 30 µM in assay [5]. For the same compound, the AC50 in assay [6] was 1.31 µM; in assay [7], more than 10 µM; in assay [8], more than 10 µM; on Adenosine receptor A1, more than 30 µM.

Take `CC(=O)OCC(=O)[C@@]12OC3(CCCC3)O[C@@H]1C[C@H]1[C@@H]3CCC4=CC(=O)C=C[C@]4(C)[C@@]3(F)[C@@H](O)C[C@@]12C` [AMCINONIDE]: the AC50 in assay [1] was more than 10 µM; at B2 bradykinin receptor, more than 10 µM; in [2], more than 10 µM; in [3], more than 30 µM; in assay [4] it was more than 10 µM; in assay [5] it was more than 10 µM. Besides, the AC50 (in [6]; in [7]; in assay [8]; at Adenosine receptor A1) was more than 10 µM each time.

As to `C#CCN[C@@H]1CCc2ccccc21` [RASAGILINE], the AC50 (in assay [1]; on B2 bradykinin receptor; in assay [2]; in assay [3]; in assay [4]; in assay [5]) was more than 30 µM throughout. In addition, the AC50 (in assay [6]; in assay [7]; in assay [8]; on Adenosine receptor A1) was more than 30 µM in each case.

As to `COC(=O)C1=C(C)NC(C)=C(C(=O)OC(C)C)C1c1cccc2nonc12` (stereo not given) [ISRADIPINE], the AC50 in assay [1] was more than 10 µM; on B2 bradykinin receptor, more than 30 µM; in assay [2] it was 0.0045 µM; in assay [3] it was 11 µM; in [4], 10.7 µM; in [5], more than 30 µM. Moreover, the AC50 in [6] was more than 10 µM; in assay [7], more than 10 µM; in assay [8], more than 10 µM; at Adenosine receptor A1, more than 30 µM.

`Cc1cc2c(OCC(CNC(C)(C)C)OC(=O)c3ccccc3)cccc2[nH]1` (stereo not given) [BOPINDOLOL]: the AC50 in [1] was more than 30 µM; at B2 bradykinin receptor, more than 30 µM; in [2], more than 30 µM; in assay [3] it was more than 30 µM; in assay [4], 2.1 µM; in [5], 3.5 µM. Besides, the AC50 (in [6]; in assay [7]; in assay [8]; at Adenosine receptor A1) was more than 30 µM throughout.

`NC(=O)C[S+]([O-])C(c1ccccc1)c1ccccc1` (stereo not given) [MODAFINIL]: the AC50 is more than 10 µM in [1]; more than 30 µM at B2 bradykinin receptor; more than 10 µM in [2]; more than 10 µM in [3]; more than 10 µM in [4]; more than 30 µM in [5]. For the same compound, the AC50 in assay [6] was more than 10 µM; in assay [7], more than 10 µM; in assay [8] it was more than 10 µM; on Adenosine receptor A1, more than 30 µM.

`CCCCCN(C)CCC(O)(P(=O)(O)O)P(=O)(O)O` [IBANDRONIC ACID]: the AC50 (in assay [1]; on B2 bradykinin receptor; in assay [2]; in assay [3]; in assay [4]; in assay [5]) was more than 30 µM each time. The AC50 (in assay [6]; in assay [7]; in [8]; on Adenosine receptor A1) was more than 30 µM in each case.

As to `CCCCOc1cc(C(=O)NCCN(CC)CC)c2ccccc2n1` [DIBUCAINE], the AC50 in assay [1] was more than 10 µM; on B2 bradykinin receptor it was more than 30 µM; in [2], more than 10 µM; in assay [3] it was more than 30 µM; in assay [4], 7.36 µM; in assay [5], more than 10 µM. Besides, the AC50 is more than 10 µM in assay [6], more than 10 µM in [7], more than 10 µM in [8] and more than 30 µM on Adenosine receptor A1.
